From paper PMC9785441, “A Broad Spectrum Antiparasitic Activity of Organotin (IV) Derivatives and Its Untargeted Proteomic Profiling Using Leishmania donovani” (Pathogens, 2022) come the findings set out here.

Molecules are shown by their SMILES.

In general, IC50 refers to the point on the concentration scale where inhibition reaches its midpoint. Broadly, the EC50 is the concentration giving half of the maximal effect.

For experiment [1], the system named is L. donovani promastigotes. Nature of the experiment: L. donovani promastigote viability assay (resazurin). Type of experiment: cell-based, Leishmania donovani. The following applies: Leishmania donovani; Figure S1 dose response curves, RFU; read-out: IC50 against the promastigotes of L. donovani. On the procedure:
Promastigotes of L. donovani from late log phase culture were diluted to 2.0 × 10^6/mL in M-199 containing 10% FBS, 25 mM HEPES (Gibco 15630-080), 100 µM adenine, 12 mM NaHCO3, 10 µM folic acid, 1% penicillin/streptomycin (Gibco 15140-122) as described previously. Compounds and controls were transferred from compound plates to 384 well assay plates with the use of an acoustic transfer system (ATS, EDC Biosystems, Fremont, CA, USA). Promastigotes were incubated with compounds at 29 °C for 48 h. To measure parasite viability, resazurin sodium salt (7-hydroxy-3H-phenoxazin3-one 10-oxide) was dissolved in PBS and added to each well at a volume of 5 µL (final concentration of 44 µM). After incubating for 4 h at room temperature, fluorescence (ex 571 nm/em 584 nm) was recorded with an Envision (Perkin Elmer, Waltham, MA, USA) microplate fluorescence/luminescence reader. […] For positive and negative control amphotericin B and 0.5% DMSO was used, respectively. Dose response and EC50 analyses were obtained using GraphPad Prism 9 Software (Graph Pad Software Inc., San Diego, CA, USA).
Background: Alamar Blue is a resazurin reagent that responds to reducing activity.

The subject of experiment [2] is N. fowleri (KUL strain) trophozoites. Put plainly: N. fowleri trophozoite viability assay (CellTiter-Glo). Type of experiment: cell-based, Naegleria fowleri. The conditions noted are these: Naegleria fowleri, 48 h. The method, then:
N. fowleri (KUL strain) was cultured in Nelson’s medium supplemented with 10% FBS and kept at 37 °C. For all experiments, trophozoites were harvested during the logarithmic phase of growth. Test compounds were serially diluted and transferred to a white solid bottomed 96-well tissue culture plate (E&K Scientific, Swedesboro, NJ, USA) followed by addition of 10,000 N. fowleri trophozoites in Nelson’s medium in a final volume of 100 µL and a final concentration of compounds ranging from 50 to 0.39 µM. Amphotericin B was used as positive control and assay plates were incubated for 48 h at 37 °C. Parasite viability was measured as described for E. histolytica and G. lamblia. EC50 values were obtained using the GraphPad Prism 9 Software.
(In general: In ATP-based viability assays light output follows the ATP content of the culture.)

Experiment [3] has as its system T. cruzi (infecting C2C12). Nature of the experiment: T. cruzi intracellular amastigote assay in C2C12 cells (high content imaging). It is filed as cell-based, Trypanosoma cruzi. The conditions noted are these: Trypanosoma cruzi, C2C12, 72 h, read-out: EC50 T. cruzi (infecting C2C12). The method, then: Mouse C2C12 myoblasts (ATCC CRL-1772) were cultivated in RPMI 1640 medium supplemented with 5% FBS and kept at 37 °C and 5% CO2. T. cruzi CAI-72 trypomastigotes were obtained from the supernatant of C2C12 cells infected four to seven days previously. For the assay, 500 C2C12 cells were mixed with 7500 T. cruzi parasites and seeded into 384-well plates at a 50 µL final volume. Test compounds and reference drugs (Benznidazole and K11777) were pre-spotted into the 384 well black bottom plates prior to the addition of cells and parasites with final assay concentration of 20 µM to 0.02 µM. The plates were incubated at 37 °C^, 5% CO2 for 72 h. Cultures were then fixed with 4% formaldehyde and 0.5 µg/mL DAPI (diamidino-2-phenylindole) was added for staining nucleic acids. Plates were kept protected from light for 1 h and then imaged in an ImageXpress Micro XLS automated high content imager (Molecular Devices, San Jose, CA, USA). Imaging and data analysis were performed as described for L. donovani amastigotes on biological triplicates.

For experiment [4], the system named is E. histolytica HM1:IMSS trophozoites. Nature of the experiment: E. histolytica trophozoite viability assay (CellTiter-Glo). Type of experiment: cell-based, Entamoeba histolytica. The conditions noted are these: Entamoeba histolytica, 48 h. The method, then:
Trophozoites of E. histolytica HM1:IMSS were maintained in vitro as described in TYI-S-33 medium supplemented with penicillin (100 U/mL) and streptomycin (100 µg/mL). Test compounds were serially diluted and transferred to a white solid bottomed 96-well tissue culture plate (E&K Scientific, Swedesboro, NJ, USA) followed by addition of 5000 E. histolytica trophozoites per well for a final volume of 100 µL TYI-S-33 medium and a final concentration of compounds ranging from 50 to 0.39 µM. Metronidazole were used as positive control and assay plates were incubated for 48 h at 37 °C. The plates maintained kept anaerobically using the GasPak EZ Anaerobic Gas Generating Pouch System (VWR). Parasite viability was measured in triplicate using the CellTiter-Glo luminescence kit (Promega G9243) in an Envision plate reader (Perkin Elmer, Waltham, MA, USA). EC50 values were obtained using GraphPad Prism 9 Software.

For experiment [5], the system named is G. lamblia (WB strain) trophozoites. Put plainly: G. lamblia trophozoite viability assay (CellTiter-Glo). It is filed as cell-based, Giardia lamblia. The conditions noted are these: Giardia duodenalis, 48 h. On the procedure: Trophozoites of G. lamblia (WB strain) were maintained in vitro as described in TYI-S-33 medium supplemented with penicillin (100 U/mL) and streptomycin (100 µg/mL). Cells were harvested during the logarithmic phase of the growth for antiparasitic assessment. Test compounds were serially diluted and transferred to a white solid bottomed 96-well tissue culture plate (E&K Scientific, Swedesboro, NJ, USA) followed by addition of 5000 G. lamblia trophozoites for a final volume of 100 µL of TYI-S-33 medium and a final concentration of compounds ranging from 50.0 to 0.39 µM. Metronidazole was used as a positive control and assay plates were incubated for 48 h at 37 °C in the GasPak EZ Anaerobic Gas Generating Pouch System (VWR). Parasite viability was measured in triplicate using the CellTiter-Glo luminescence kit in an Envision plate reader. EC50 values were obtained using the GraphPad Prism 9 Software.

Experiment [6] has as its system T. b. brucei Lister 427 bloodstream forms. Put plainly: T. brucei bloodstream form viability assay (SYBR Green). It is filed as cell-based, Trypanosoma brucei. The conditions noted are these: Trypanosoma brucei; bloodstream forms, 72 h. The method, then: Bloodstream forms of T. b. brucei Lister 427 were cultured in complete HMI-9 medium in T25 suspension culture flasks (Thermo Scientific, Cat. 12-566-84) and maintained at 37 °C and 5% CO2. Trypanosomes were kept in log-phase growth and passaged every 48 h. […] Pentamidine were used as a positive control for T. brucei assay. Compounds were diluted with fresh HMI-9 medium (99 µL/well). Parasites in log-phase were suspended at 2 × 10^5 parasites/mL in HMI-9 medium and then added to each well (100 µL) to give 2 × 10^4 trypanosomes/well. Assay plates were incubated at 37 °C and 5% CO2 for 72 h. Parasite lysate was obtained by addition of 50 µL/well of lysis solution (0.012% saponin, 0.12% Triton X-100, 7.5 mM ETDA, 30 mM Tris, pH 7.5) containing 0.3 µL/mL SYBR Green I (10,000× in DMSO; Invitrogen, Carlsbad, CA, USA). Assay plates were incubated in the dark for 1 h at room temperature. Fluorescence was measured at 485 nm excitation and 535 nm emission wavelengths using an EnVision multilabel plate reader (PerkinElmer, Waltham, MA, USA). In each assay plate, parasite viability was normalized relative to positive (pentamidine) and negative (0.5% DMSO) controls in each assay plate. Assays were performed in biological and technical duplicates, and dose–response and EC50 data were generated with GraphPad Prism 9 using a sigmoidal four parameter logistic curve.

A further experiment has as its system S. mansoni, adult worm. Put plainly: S. mansoni adult worm ex vivo phenotypic screen (severity score). Type of experiment: cell-based, Schistosoma mansoni. The following applies: after 24 h; tested at 10, 5, 2.5 and 1.25 µM; EC50. From the text:
The Naval Medical Research Institute (NMRI) isolate of S. mansoni was used. The parasite was cycled between Biomphalaria glabrata snails and male Golden Syrian hamsters (infected at 4–6 weeks of age) as intermediate and definitive hosts, respectively. Hamsters were infected and maintained in accordance with protocols approved by the Institutional Animal Care and Use Committee (IACUC) at the University of California San Diego. The acquisition, preparation and in vitro maintenance of S. mansoni have been described. Briefly, adult worms were harvested from hamsters 42 days post-infection in RPMI or DMEM, and washed five times prior to maintenance overnight at 37 °C and 5% CO2 in Basch medium containing 4% heat-inactivated FBS, 100 µg/mL streptomycin and 100 U/mL penicillin.
Ex vivo screens with adults employed 24-well flat-bottomed plates and approximately 5 males and 2–3 females/well. The complex and often dynamic phenotypic responses that the schistosome parasite is capable of were observed using a Zeiss Axiovert A1 inverted microscope at 24 h. Observations were classified using a constrained nomenclature that involves simple “descriptors” to convey changes in shape, motility and appearance, and the inability of the male worm to adhere to the bottom of the well, compared to DMSO controls. Each descriptor was given a value of 1 and these were added up to yield a “severity score” with a maximum of 4. Evidence of degeneracy or death was awarded a value of 4 as was damage to the tegument (parasite’s surface) on the understanding this would compromise survival in vivo. […] Data were averaged across two experiments for each compound concentration tested.

`C[C@@H]1[C@H](O)[C@@H](C)/C=C/C=C/C=C/C=C/C=C/C=C/C=C/[C@H](O[C@@H]2O[C@H](C)[C@@H](O)[C@H](N)[C@@H]2O)C[C@@H]2O[C@](O)(C[C@@H](O)C[C@@H](O)[C@H](O)CC[C@@H](O)C[C@@H](O)CC(=O)O[C@H]1C)C[C@H](O)[C@H]2C(=O)O` [AmpB, amphotericin B, reference compound]: the IC50 in experiment [1] was 740 nM. The compound also showed a 50% effective concentration (EC50) in experiment [2] of 90 nM.

Turning to `O=C(Cn1ccnc1[N+](=O)[O-])NCc1ccccc1` [Benznidazole, benznidazole, reference compound], the concentration for a half-maximal effect (EC50) in experiment [3] came to 4710 nM.

Take `Cc1ncc([N+](=O)[O-])n1CCO` [Metronidazole, metronidazole, reference compound]: the values for the EC50 in experiment [4] and in experiment [5] were 4400 nM and 5700 nM, respectively.

Consider `N=C(N)c1ccc(OCCCCCOc2ccc(C(=N)N)cc2)cc1` [Pentamidine, pentamidine, reference compound], for which the concentration for a half-maximal effect (EC50) in experiment [6] was determined as 10 nM.

Consider `O=C(C1CCCCC1)N1CC(=O)N2CCc3ccccc3C2C1` (stereo not shown) [Praziquantel, praziquantel, reference compound], for which, in the experiment with S. mansoni, adult worm, the “S. mansoni, adult worm: least concentration at which a severity score of 4 was recorded” value is on record as 1.25 µM.
